Consider one compound from patent US11999745B2, “Pharmaceutical compounds” (Heptares Therapeutics Limited, priority 2020, dated 2024).

The nature of series [1]: Aqueous solubility (thermodynamic), LCMS/MS method. In kind it is physicochemical. The conditions noted are these: 1 mg/mL theoretical, individual replicates; for solubility thermodynamic at 4 h: 25 °C, thermodynamic from solid. The protocol: A 10 mM stock solution (in DMSO) was prepared for the test sample. From the 10 mM stock solution, a working solution of 1 μM was prepared by diluting the test sample in mobile phase solution (typically, methanol: 2 mM ammonium acetate containing suitable internal standard (IS)—carbamazepine/any other suitable IS). Further, the working solution was serially diluted in mobile phase solution up to 5 to 6 linearity point to prepare standard solution for plotting calibration curve. The area for each standard sample is analyzed in singlet using LCMS/MS. The normalized area values are plotted vs. concentration to achieve calibration equation to determine the unknown sample. […] Test compound was dispersed in buffer solution using a vortex mixer.
The resulting solution are then kept on RotoSpin (shaker) at 50 rpm for 4 hours for TD solubility at room temperature (25° C.). After the incubation period, the solution is filtered using 0.45 micron PVDF injector filters in order to remove the insoluble fraction of the compound. Filtrate is diluted in mobile phase and subsequently the AUC is ascertained for diluted samples using LCMS/MS. From the AUC of test sample the corresponding concentration is calculated using 5 to 6 point linearity/calibration curve.
All numbers reported as uM.

The nature of series [2]: Hepatocyte stability, CLint (in vitro hepatocytes), monkey. In kind it is in vitro ADME. As to conditions: pooled cryopreserved hepatocytes, 1.0 million cells/mL, 37° C., read-out: in vitro intrinsic clearance (CLint). As to the method:
(§1) Hepatocyte stability assays were performed using pooled cryopreserved hepatocytes (Bioreclamation). Test compounds prepared in DMSO, were incubated at an initial concentration of 1 μM (0.25% DMSO final, n=2) with hepatocytes at cell densities of 1.0 million cells/mL at 37° C. Aliquots were removed at 0.5, 5, 10, 15, 30, 60 and 120 minutes for termination of reactions and compound extraction with acetonitrile containing an analytical internal standard (0.5 μM carbamazepine). Samples were centrifuged and the supernatant fractions analysed for parent compound by mass spectrometry (LC-MS/MS). The amount of compound remaining (expressed as %) was determined from the MS response in each sample relative to that in the T=0 samples (normalised for internal standard). Ln plots of the % remaining were used to determine the half-life for compound disappearance using the relationship: Half-Life(min)=−0.693/λ (where λ is the slope of the Ln % remaining vs time curve).

The nature of series [3]: Unbound brain/unbound plasma concentration ratio (Kp,uu). Type of series: in vivo. The conditions noted are these: brain and plasma (unbound); measured unbound plasma:brain distribution; parameter used in prediction; read-out: Kpuu (unbound brain/unbound plasma concentration). The text has this: Kp,uu—ratio of unbound brain concentration/unbound plasma concentration. Quantifies the net flux of drug across the blood brain barrier, including the quantitative role of transporters, without being confounded by nonspecific binding in plasma and brain tissues. Gupta et al, DMD, 2006; Hammarlund-Udenaes et al, PharmRes, 2008

The nature of series [4]: Fraction unbound (fu) in plasma or brain tissue homogenate. In kind it is in vitro ADME. The conditions noted are these: parameter used in receptor occupancy prediction. The text has this:
fu—fraction of compound unbound in plasma or brain tissue homogenate

Series [5] in a line: Hepatocyte stability, CLint (in vitro hepatocytes), mouse. Type of series: in vitro ADME. As to conditions: pooled cryopreserved hepatocytes, 1.0 million cells/mL, 37° C., read-out: in vitro intrinsic clearance (CLint). The protocol: as §1
A further series relates to MDR1 (P-glycoprotein). Nature of the series: MDCK permeability/efflux. In kind it is in vitro ADME. The conditions noted are these: dog. The protocol:
MDR1-MDCK cells (Solvo Biotechnology) were seeded onto 24-well Transwell plates at 2.35×10^5 cells per well and used in confluent monolayers after a 3 day culture at 37° C. under 5% CO2. For cell types, test and control compounds (propranolol, vinblastine) were added (1 μM, 0.1% DMSO final, n=2) to donor compartments of the Transwell plate assembly in assay buffer (Hanks balanced salt solution supplemented with 25 mM HEPES, adjusted to pH 7.4) for both apical to basolateral (A>B) and basolateral to apical (B>A) measurements. Incubations were performed at 37° C., with samples removed from both donor and acceptor chambers at T=0 and 1 hour and compound analysed by mass spectrometry (LC-MS/MS) including an analytical internal standard.
Apparent permeability (Papp) values were determined from the relationship: Papp=(CompoundAcceptor T=end/(CompoundDonor×VDonorγIncubation Time)×VDonor Area×60×10^−6 cm/s
Where V is the volume of each Transwell compartment (apical 125 μL, basolateral 600 μL), and concentrations are the relative MS responses for compound (normalized to internal standard) in the donor chamber before incubation and acceptor chamber at the end of the incubation. Area=area of cells exposed for drug transfer (0.33 cm^2). Efflux ratio (Papp B>A /Papp A>B) was calculated from the mean Papp values in each direction. […] Lucifer Yellow (LY) was added to the apical buffer in all wells to assess viability of the cell layer. […] Compound recovery from the wells was determined from MS responses (normalized to internal standard) in donor and acceptor chambers at the end of incubation compared to response in the donor chamber pre-incubation.

In brackets after ≈: the same amount, converted by molar mass. Several values for one entry are separate records, joined by “and”; a condition that tells them apart may be missing. Equal entries are not always repeated. Where two headings read alike, the source gives them in different places. Bounds are passed on as bounds.

For orientation: thermodynamic solubility means the concentration in solution at equilibrium with solid. For orientation: fraction unbound means the share of the substance not bound to proteins or other matrix. The Papp A→B is how fast a substance crosses the layer from the apical side. As a reminder, the Papp B→A is the apparent permeability from the basolateral to the apical side of a cell layer. Turning to `CC(C)(C)NC(=O)C1CCN([C@H]2C[C@H]3CC[C@@H](C2)N3c2nc(C(F)(F)F)no2)CC1` [Example 1, N-tert-butyl-1-{(1R,3r,5S)-8-[3-(trifluoromethyl)-1,2,4-oxadiazol-5-yl]-8-azabicyclo[3.2.1]octan-3-yl}piperidine-4-carboxamide], the “Thermodynamic solubility, Blank FaSSIF pH 6.5 (n = 4)” value in series [1] (Blank FaSSIF (Aq. Buffer) pH 6.5, 4 hours, 25° C.) is 1941 uM and 1937 uM and 2022 uM. In addition, the thermodynamic solubility at 4 h in series [1] (Blank FaSSIF (aqueous buffer), pH 6.5, aqueous buffer, Blank FaSSIF (Aq. Buffer) pH 6.5, 4 hours, read-out: Thermodynamic solubility, Blank FaSSIF pH 6.5 (n = 4)) was 1740 µM (≈ 749 µg/mL); in series [1] (FaSSIF, pH 6.5, fassif, FaSSIF pH 6.5, 4 hours, read-out: Thermodynamic solubility, FaSSIF pH 6.5 (n = 4)) it was 2010 µM (≈ 862 µg/mL); in series [1] (SGF, pH 1.2, simulated gastric fluid, SGF pH 1.2, 4 hours, read-out: Thermodynamic solubility, SGF pH 1.2 (n = 4)), 2080 µM (≈ 893 µg/mL). Also, the “Thermodynamic solubility, FaSSIF pH 6.5 (n = 4)” value in series [1] (FaSSIF pH 6.5, 4 hours, 25° C.) is 2448 uM and 1713 uM and 2104 uM. The “Thermodynamic solubility, SGF pH 1.2 (n = 4)” value in series [1] (SGF pH 1.2, 4 hours, 25° C.) was 1988 uM and 1702 uM and 2039 uM. The figures for the hepatocyte CLint at 1 μM in series [2] and in series [5] were less than 5 µL/min/1e6 cells and 7 µL/min/1e6 cells, respectively. The Kp uu in series [3] is 1. In addition, the fraction unbound in series [4] was 0.682. Further, the Papp A→B at 1 h, 1 μM in the series on MDR1 (P-glycoprotein) (apical to basolateral, 1 μM, pH 7.4, 1 hour, read-out: Apparent permeability (Papp) A−B) came to 660 nm/s. For the same compound, the Papp B→A at 1 h, 1 μM in the series with MDR1 (P-glycoprotein) (basolateral to apical, 1 μM, pH 7.4, 1 hour, read-out: Apparent permeability (Papp) B−A) came out at 770 nm/s. The efflux ratio at 1 h, 1 μM in the series on MDR1 (P-glycoprotein) (pH 7.4, read-out: B−A/A−B efflux ratio) amounted to 1.2.
